Experimental data as given in patent US20180230127A1 (PFIZER INC., priority 2015, published 2018).
Structures can show the parent of a compound that is named as a salt.

target: T1, human IRAK4 kinase domain (aa 154-460) (Homo sapiens, UniProt Q9NWZ3); assay: IRAK4 Enzymatic DELFIA Assay; format: biochemical; conditions: 0.6 mM ATP (KM); 114 pM IRAK4 kinase domain; 200 nM substrate; 5% DMSO
T1 construct: human IRAK4 kinase domain (aa 154-460; GenBank ID AF445802)
T1 sequence (Q9NWZ3 154-460): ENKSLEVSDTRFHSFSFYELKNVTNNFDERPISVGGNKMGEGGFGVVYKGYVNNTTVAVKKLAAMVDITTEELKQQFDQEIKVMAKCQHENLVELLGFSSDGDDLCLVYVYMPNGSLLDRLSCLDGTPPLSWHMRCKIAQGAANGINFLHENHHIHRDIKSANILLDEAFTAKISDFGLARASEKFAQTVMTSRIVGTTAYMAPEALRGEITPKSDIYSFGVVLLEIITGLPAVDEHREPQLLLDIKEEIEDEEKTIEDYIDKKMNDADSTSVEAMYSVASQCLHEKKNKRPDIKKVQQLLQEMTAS
Experimental: IRAK4 Enzymatic DELFIA Assay.
This is an in vitro assay to measure IRAK4 enzymatic activity utilizing the DELFIA (Dissociation-Enhanced Lanthanide Fluorescent Immunoassay, Perkin-Elmer) platform, with the human IRAK4 kinase domain (aa 154-460) construct to characterize IRAK4 inhibitor and control compounds at 0.6 mM ATP (KM). The final amount of enzyme in the assay is 114 pM IRAK4 kinase domain, final concentration of substrate is 200 nM, and final concentration of DMSO is 5%.
The test compound was solubilized in DMSO to a stock concentration of 30 mM. The dose response plates were prepared with a 2 mM primary compound concentration, and then diluted in DMSO in a four-fold series for a total of 10 data points. Compounds were prepared as a 20-fold multiple of the final in-assay concentration
To begin the assay, 45 μL of reaction mixture containing 20 mM HEPES pH=7.5, 5 mM MgCl2, 0.0025% Brij-35, […], 228 pM phosphorylated recombinant human IRAK4 kinase domain (aa 154-460; GenBank ID AF445802) were aliquoted into Ultra-Clear Polypropylene, 96-well, U-Bottom Plates (Corning Life Sciences). 5 μL of test compound from the dose-response plate was added to the reaction mixture and incubated for 15 minutes at room temperature. Then 50 μL of 20 mM HEPES pH=7.5, 5 mM MgCl2, 0.0025% Brij-35, 600 μM ATP, and 400 nM ERM-biotinylated peptide (AGAGRDKYKTLRQIR) were added to start the reaction. The reaction was incubated for 90 minutes at room temperature and stopped by the addition of 25 μL 0.5M EDTA.
100 μL of the reaction mixture was transferred to a streptavidin coated detection plate (EvenCoat Streptavidin Coated Plates, 96-Well, R&D Systems) and incubated for 30 minutes at room temperature. The plates were washed 4 times with 100 μL per well of PBS containing 0.05% Tween-20. Plates were then incubated with 50 μL per well of antibody cocktail of Anti-pERM antibody (Cell Signaling Technology) diluted 1:5000, plus Anti-Rabbit IgG EuN1 at 0.242 μg/ml (Perkin-Elmer Life Sciences) in a solution of 10 mM MOPS pH=7.5, 150 mM NaCl, 0.05% Tween-20, 0.02% NaN3, 1% BSA, 0.1% Gelatin for 45 minutes. The plates were washed 4× with 100 μL per well of PBS containing 0.05% Tween-20. Then 100 μL per well of DELFIA Enhancement Solution were added to the plate and then read on an EnVision Model 2103 using a 340 nm excitation wavelength and a 665 nm emission detection.

SMILES | IC50
CC(C)Oc1cc2c(O[C@@H]3CCCN(C(=O)C(C)(N)CO)C3)ccnc2cc1C(N)=O (mixture of isomers) [Example 12, Racemic-4-{[(3R)-1-(2-amino-3-hydroxy-2-methylpropanoyl)piperidin-3-yl]oxy}-6-(propan-2-yloxy)quinoline-7-carboxamide formate] | 626 nM
CC(C)Oc1cc2c(O[C@@H]3CCCN(C(=O)C(C)C#N)C3)ccnc2cc1C(N)=O (mixture of isomers) [Example 34, 4-{[(3R)-1-(2-cyanopropanoyl)piperidin-3-yl]oxy}-6-(propan-2-yloxy)quinoline-7-carboxamide] | 926 nM
CC(C)Oc1cc2c(O[C@H]3CCN(C(=O)CC#N)C3)nccc2cc1C(N)=O [Example 1, 1-{[(3S)-1-(cyanoacetyl)pyrrolidin-3-yl]oxy}-7-(propan-2-yloxy)isoquinoline-6-carboxamide formate] | 53 nM
CC(C)Oc1cc2c(O[C@@H]3CCN(C(=O)CC#N)C3)nccc2cc1C(N)=O [Example 2, 1-{[(3R)-1-(cyanoacetyl)pyrrolidin-3-yl]oxy}-7-(propan-2-yloxy)isoquinoline-6-carboxamide formate] | 66 nM
CC(C)Oc1cc2c(O[C@H]3CCN(C(=O)CC#N)C[C@H]3F)nccc2cc1C(N)=O [Example 3, 1-{[(3R,4S)-1-(cyanoacetyl)-3-fluoropiperidin-4-yl]oxy}-7-(propan-2-yloxy)isoquinoline-6-carboxamide formate] | 308 nM
CC(C)Oc1cc2c(O[C@@H]3CCCN(C(=O)CO)C3)ccnc2cc1C(N)=O [Example 4, 4-{[(3R)-1-(hydroxyacetyl)piperidin-3-yl]oxy}-6-(propan-2-yloxy)quinoline-7-carboxamide formate] | 13 nM
CC(C)Oc1cc2c(O[C@@H]3CCCN(C(=O)C(F)F)C3)ccnc2cc1C(N)=O [Example 5, 4-{[(3R)-1-(difluoroacetyl)piperidin-3-yl]oxy}-6-(propan-2-yloxy)quinoline-7-carboxamide formate] | 35 nM
CC(C)Oc1cc2c(O[C@@H]3CCCN(C(=O)CN)C3)ccnc2cc1C(N)=O [Example 6, 4-{[(3R)-1-glycylpiperidin-3-yl]oxy}-6-(propan-2-yloxy)quinoline-7-carboxamide formate] | 348 nM
CC(C)Oc1cc2c(O[C@@H]3CCCN(C(=O)[C@H](C)N)C3)ccnc2cc1C(N)=O [Example 7, 4-{[(3R)-1-(L-alanyl)piperidin-3-yl]oxy}-6-(propan-2-yloxy)quinoline-7-carboxamide formate] | 143 nM
COCC(=O)N1CCC[C@@H](Oc2ccnc3cc(C(N)=O)c(OC(C)C)cc23)C1 [Example 8, 4-{[(3R)-1-(methoxyacetyl)piperidin-3-yl]oxy}-6-(propan-2-yloxy)quinoline-7-carboxamide formate] | 168 nM
CC(C)Oc1cc2c(O[C@@H]3CCCN(C(=O)C(F)(F)F)C3)ccnc2cc1C(N)=O [Example 9, 6-(propan-2-yloxy)-4-{[(3R)-1-(trifluoroacetyl)piperidin-3-yl]oxy}quinoline-7-carboxamide formate] | 263 nM
CCC(=O)N1CCC[C@@H](Oc2ccnc3cc(C(N)=O)c(OC(C)C)cc23)C1 [Example 10, 4-{[(3R)-1-propanoylpiperidin-3-yl]oxy}-6-(propan-2-yloxy)quinoline-7-carboxamide formate] | 506 nM
CC(C)Oc1cc2c(O[C@@H]3CCCN(C(=O)c4cnco4)C3)ccnc2cc1C(N)=O [Example 11, 4-{[(3R)-1-(1,3-oxazol-5-ylcarbonyl)piperidin-3-yl]oxy}-6-(propan-2-yloxy)quinoline-7-carboxamide formate] | 560 nM
CC(C)Oc1cc2c(O[C@@H]3CCCN(C(=O)[C@H](C)O)C3)ccnc2cc1C(N)=O [Example 13, 4-({(3R)-1-[(2S)-2-hydroxypropanoyljpiperidin-3-yl}oxy)-6-(propan-2-yloxy)quinoline-7-carboxamide formate] | 751 nM
CC(C)Oc1cc2c(O[C@@H]3CCCN(C(=O)c4c[nH]cn4)C3)ccnc2cc1C(N)=O [Example 14, 4-{[(3R)-1-(1H-imidazol-4-ylcarbonyl)piperidin-3-yl]oxy}-6-(propan-2-yloxy)quinoline-7-carboxamide formate] | 856 nM
CC(C)Oc1cc2c(O[C@@H]3CCCN(C(=O)C4(CN)CC4)C3)ccnc2cc1C(N)=O [Example 15, 4-{[(3R)-1-{[1-(aminomethyl)cyclopropyl]carbonyl}piperidin-3-yl]oxy}-6-(propan-2-yloxy)quinoline-7-carboxamide formate] | 999 nM
CC(C)Oc1cc2c(O[C@@H]3C[C@@H](C)N(C(=O)CC#N)C3)ccnc2cc1C(N)=O [Example 16, 4-{[(3R,5R)-1-(cyanoacetyl)-5-methylpyrrolidin-3-yl]oxy}-6-(propan-2-yloxy)quinoline-7-carboxamide formate] | 110 nM
CC(C)Oc1cc2c(O[C@H]3CCN(C(=O)CC#N)[C@@H]3C)ccnc2cc1C(N)=O [Example 17, 4-{[(2R,3S)-1-(cyanoacetyl)-2-methylpyrrolidin-3-yl]oxy}-6-(propan-2-yloxy)quinoline-7-carboxamide formate] | 111 nM
CC(C)Oc1cc2c(O[C@H]3CCN(C(=O)CC#N)C[C@H]3F)ccnc2cc1C(N)=O [Example 18, 4-{[(3R,4S)-1-(cyanoacetyl)-3-fluoropiperidin-4-yl]oxy}-6-(propan-2-yloxy)quinoline-7-carboxamide formate] | 660 nM
CC(C)Oc1cc2c(O[C@@H]3CCNC[C@H]3F)nccc2cc1C(N)=O [Example 19, 1-{[(3R,4R)-3-fluoropiperidin-4-yl]oxy}-7-(propan-2-yloxy)isoquinoline-6-carboxamide] | 39 nM
CC(C)Oc1cc2c(O[C@@H]3CCNC[C@@H]3F)ccnc2cc1C(N)=O [Example 20, 1-{[(3S.4R)-3-fluoropiperidin-4-yl]oxy}-7-(propan-2-yloxy)isoquinoline-6-carboxamide] | 150 nM
CC(C)Oc1cc2c(OC3CCNC3=O)nccc2cc1C(N)=O (centres unmarked) [Example 21, 1-[(2-oxopyrrolidin-3-yl)oxy]-7-(propan-2-yloxy)isoquinoline-6-carboxamide] | 602 nM
COc1cc2c(O[C@@H]3CCCNC3)ccnc2cc1C(N)=O [Example 22, 6-methoxy-4-[(3R)-piperidin-3-yloxy]quinoline-7-carboxamide hydrochloride] | 428 nM
NC(=O)c1cc2nccc(O[C@@H]3CCCNC3)c2cc1OC1CCC1 [Example 23, 6-(cyclobutyloxy)-4-[(3R)-piperidin-3-yloxy]quinoline-7-carboxamide] | 151 nM
CC(C)Oc1cc2c(OC3CCNC3)ccnc2cc1C(N)=O (centres unmarked) [Example 24, 6-(propan-2-yloxy)-4-(pyrrolidin-3-yloxy)quinoline-7-carboxamide] | 611 nM
CC(C)Oc1cc2c(OC3CCNCC3)ccnc2cc1C(N)=O [Example 25, 4-(piperidin-4-yloxy)-6-(propan-2-yloxy)quinoline-7-carboxamide] | 184 nM
CC(C)Oc1cc2c(O[C@H]3CCNC3)ccnc2cc1C(N)=O [Example 26, 6-(propan-2-yloxy)-4-[(3S)-pyrrolidin-3-yloxy]quinoline-7-carboxamide formate] | 950 nM
CC(C)Oc1cc2c(OC3CCNC3=O)ccnc2cc1C(N)=O (centres unmarked) [Example 27, 4-[(2-oxopyrrolidin-3-yl)oxy]-6-(propan-2-yloxy)quinoline-7-carboxamide] | 642 nM
CC(C)Oc1cc2c(O[C@@H]3CCCN(C(=O)CC#N)C3)ccnc2cc1C(N)=O [Example 28, 4-{[(3R)-1-(cyanoacetyl)piperidin-3-yl]oxy}-6-(propan-2-yloxy)quinoline-7-carboxamide] | 4 nM
